Source: patent publication US8987249B2, “Substituted 2-Aza-bicyclo[2.2.1]heptane-3-carboxylic acid (benzyl-cyano-methyl)-amides inhibitors of Cathepsin C” (Boehringer Ingelheim International GmbH, priority 2013, dated 2015)

Tests used:
[1] = target: recombinant human DPPI (Cathepsin C) (Homo sapiens (Human), UniProt P53634); experiment: Inhibition of human DPPI (Cathepsin C); type: biochemical; settings: substrate Gly-Arg-AMC
In short: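 Recombinant human DPPI in MES buffer pH 6.0 (5 mM DTT, 0.1% BSA); fluorogenic substrate at 50 μM final, 30 min at room temperature, stopped with 1 μM Gly-Phe-DMK. Background-subtracted fluorescence expressed as percent of vehicle control; IC50 derived.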

[2] = Determination of metabolic stability with human liver microsomes; settings: pooled human liver microsomes; for half-life at 1 μM: human, pH 7.6
Experimental: Determination of Metabolic Stability with Human Liver Microsomes
The metabolic degradation of the test compound is assayed at 37° C. with pooled human liver microsomes. The final incubation volume of 100 μl per time point contains TRIS buffer pH 7.6 (0.1 M), magnesium chloride (5 mM), microsomal protein (1 mg/ml) and the test compound at a final concentration of 1 μM. Following a short preincubation period at 37° C., the reactions are initiated by addition of beta-nicotinamide adenine dinucleotide phosphate, reduced form (NADPH, 1 mM) and terminated by transferring an aliquot into acetonitrile after different time points. Additionally, the NADPH-independent degradation is monitored in incubations without NADPH, terminated at the last time point. The [%] remaining test compound after NADPH independent incubation is reflected by the parameter c (control) (metabolic stability). The quenched incubations are pelleted by centrifugation (10,000 g, 5 min). An aliquot of the supernatant is assayed by LC-MS/MS for the amount of parent compound.
The half-life (t½ INVITRO) is determined by the slope of the semilogarithmic plot of the concentration-time profile.

[3] = target: recombinant human Cathepsin K (Homo sapiens (Human), UniProt P43235); experiment: Inhibition of human Cathepsin K; type: biochemical; settings: substrate Z-Gly-Pro-Arg-AMC
Text: Inhibition of Human Cathepsin K
Materials: Microtiterplates (Optiplate-384 F were purchased from PerkinElmer (Prod. No. 6007270). The substrate Z-Gly-Pro-Arg-AMC was from Biomol (Prod.-No. P-142). L-Cysteine (Prod. No. 168149) was from Sigma. Sodium acetate was from Merck (Prod.-No. 6268.0250), EDTA was from Fluka (Prod.-No. 03680). The inhibitor E-64 was purchased from Sigma (Prod.-No. E3132). The recombinant human Cathepsin K proenzyme was purchased from Biomol (Prod. No. SE-367). All other materials were of highest grade commercially available.
The following buffers were used: Activation buffer: 32.5 mM sodium acetate, adjusted to pH 3.5 with HCl; Assay buffer: 150 mM sodium acetate, 4 mM EDTA, 20 mM L-Cysteine, adjusted to pH 5.5 with HCl,
To activate the proenzyme, 5 μl procathepsin K were mixed with 1 ul activation buffer, and incubated at room temperature for 30 min.
5 μL test compound (final concentration 0.1 nM to 100 μM) in aqua bidest (containing 4% DMSO, final DMSO concentration 1%) were mixed with 10 uL of Cathepsin K in assay buffer (final concentration 2 ng/μL) and incubated for 10 min. […] The plates were then incubated at room temperature for 60 min. Then, the reaction was stopped by adding 10 μL of E64 in assay buffer (final concentration 1 μM). The fluorescence in the wells was determined using a Molecular Devices SpectraMax M5 Fluorescence Reader (Ex 360 nm, Em 460 nm).
Each assay microtiter plate contains wells with vehicle controls (1% DMSO in bidest) as reference for non-inhibited enzyme activity (100% Ctl; high values) and wells with inhibitor (E64 in bidest+1% DMSO, final concentration […]) as controls for background fluorescence (0% Ctl; low values). The analysis of the data was performed by calculating the percentage of fluorescence in the presence of test compound in comparison to the fluorescence of the vehicle control after subtracting the background fluorescence: (RFU(sample)−RFU(background))*100/(RFU(control)−RFU(background))
Data from these calculations were used to generate IC50 values for inhibition of Cathepsin K, respectively.

Sequence of recombinant human DPPI (Cathepsin C) (P53634 231-394): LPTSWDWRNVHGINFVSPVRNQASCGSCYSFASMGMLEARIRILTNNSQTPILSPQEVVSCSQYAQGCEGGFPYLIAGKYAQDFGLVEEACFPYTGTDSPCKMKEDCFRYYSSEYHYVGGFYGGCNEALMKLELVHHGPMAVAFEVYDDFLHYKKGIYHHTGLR
Sequence of recombinant human DPPI (Cathepsin C) (P53634 395-463): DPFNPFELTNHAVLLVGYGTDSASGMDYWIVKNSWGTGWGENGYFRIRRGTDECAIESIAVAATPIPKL
Sequence of recombinant human DPPI (Cathepsin C) (P53634 25-134): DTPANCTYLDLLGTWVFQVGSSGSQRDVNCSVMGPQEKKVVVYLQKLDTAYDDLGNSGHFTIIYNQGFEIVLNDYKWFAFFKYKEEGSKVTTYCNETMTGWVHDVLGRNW
Sequence of recombinant human Cathepsin K (P43235 115-329): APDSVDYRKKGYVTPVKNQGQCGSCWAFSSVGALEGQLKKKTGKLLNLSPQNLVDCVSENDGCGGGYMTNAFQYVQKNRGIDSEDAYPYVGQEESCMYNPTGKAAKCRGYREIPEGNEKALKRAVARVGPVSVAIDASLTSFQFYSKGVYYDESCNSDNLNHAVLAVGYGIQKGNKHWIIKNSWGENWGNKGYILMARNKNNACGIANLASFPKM

| Structure (SMILES) | IC50 [1] | half-life at 1 μM [2] | IC50 [3] | In vitro stability in human liver microsome incubations t½ ([2]; 1 μM test compound, 37° C., NADPH) |
| --- | --- | --- | --- | --- |
| N#CC(Cc1ccc2c(c1)c(=O)[nH]c1ccccc12)NC(=O)[C@H]1N[C@@H]2CC[C@H]1C2 (stereo partly drawn) [Example 9, (1S,2S,4R)—N-[1-cyano-2-(6-oxo-5H-phenanthridin-8-yl)ethyl]-3-azabicyclo[2.2.1]heptane-2-carboxamide] | 9.6 nM | > 2 h | – | – |
| N#C[C@H](Cc1ccc(-n2cc(-c3ccc4occc4c3)nn2)cc1F)NC(=O)[C@H]1N[C@@H]2CC[C@H]1C2 [Example 84] | 13.7 nM | – | 4900 nM | – |
| N#Cc1sccc1-c1ccc(C[C@@H](C#N)NC(=O)[C@H]2N[C@@H]3CC[C@H]2C3)c(F)c1 [Example 85] | 14 nM | – | 3000 nM | – |
| Cc1occc1-c1ccc(CC(C#N)NC(=O)[C@H]2N[C@@H]3CC[C@H]2C3)c(F)c1 (stereo partly drawn) [Example 92] | 17.7 nM | – | 8200 nM | – |
| Cc1ncc(-c2ccc(C[C@@H](C#N)NC(=O)[C@H]3N[C@H]4C[C@@H]3[C@@H]3C[C@@H]34)c(F)c2)s1 [Example 93] | 18.3 nM | – | 6900 nM | – |
| CC(O)Cc1cn(-c2ccc(C[C@@H](C#N)NC(=O)[C@H]3N[C@@H]4CC[C@H]3C4)c(F)c2)nn1 (stereo partly drawn) [Example 101] | 23.9 nM | – | 6500 nM | – |
| N#CC(Cc1ccc(-c2ccoc2)cc1F)NC(=O)[C@H]1N[C@@H]2CC[C@H]1C2 (stereo partly drawn) [Example 103] | 24.9 nM | – | 5900 nM | – |
| Cc1n[nH]cc1-c1ccc(CC(C#N)NC(=O)[C@H]2N[C@@H]3CC[C@H]2C3)c(F)c1 (stereo partly drawn) [Example 104] | 24.9 nM | – | 10300 nM | – |
| Cn1c(=O)oc2cc(-c3ccc(CC(C#N)NC(=O)[C@H]4N[C@@H]5CC[C@H]4C5)c(F)c3)ccc21 (stereo partly drawn) [Example 107] | 25.9 nM | – | 4700 nM | – |
| CCc1ncc(-c2ccc(C[C@@H](C#N)NC(=O)[C@H]3N[C@H]4C[C@@H]3[C@@H]3C[C@@H]34)c(F)c2)s1 [Example 113] | 36.4 nM | – | 8300 nM | – |
| N#C[C@H](Cc1ccc(-c2ccc(C(=O)O)s2)cc1F)NC(=O)[C@H]1N[C@@H]2CC[C@H]1C2 [Example 115] | 37.8 nM | – | 2300 nM | – |
| Cn1cc(-c2ccc(C[C@@H](C#N)NC(=O)[C@H]3N[C@@H]4CC[C@H]3C4)c(F)c2)c(C(F)(F)F)n1 [Example 118] | 44.3 nM | – | 3900 nM | – |
| COc1ccccc1-c1cn(-c2ccc(C[C@@H](C#N)NC(=O)[C@H]3N[C@@H]4CC[C@H]3C4)c(F)c2)nn1 [Example 119] | 51.2 nM | – | 4500 nM | – |
| Cc1noc(C)c1-c1ccc(C[C@@H](C#N)NC(=O)[C@H]2N[C@@H]3CC[C@H]2C3)c(F)c1 [Example 121] | 156 nM | – | 5200 nM | – |
| CN1CCN(c2ccc(C[C@@H](C#N)NC(=O)[C@H]3N[C@@H]4CC[C@H]3C4)c(F)c2)C(=O)C1 [Example 125] | 206 nM | > 2.17 h | – | – |
| N#C[C@H](Cc1ccc(-c2ccc(C(N)=O)cc2)cc1F)NC(=O)[C@H]1N[C@H]2C[C@@H]1[C@@H]1C[C@@H]12 [Example 130] | 43.5 nM | – | 10200 nM | – |
| COC(=O)c1cc(-c2ccc(C[C@@H](C#N)NC(=O)[C@H]3N[C@H]4C[C@@H]3[C@@H]3C[C@@H]34)c(F)c2)cs1 [Example 133] | 16.1 nM | – | 19400 nM | – |
| N#C[C@H](Cc1ccc(-c2ccc3c(c2)CC(=O)N3)cc1F)NC(=O)[C@H]1N[C@H]2C[C@@H]1[C@@H]1C[C@@H]12 [Example 134] | 17.8 nM | – | 6700 nM | – |
| CCn1cc(-c2ccc(C[C@@H](C#N)NC(=O)[C@H]3N[C@H]4C[C@@H]3[C@@H]3C[C@@H]34)c(F)c2)cn1 [Example 138] | 14.5 nM | – | 6400 nM | – |
| CS(=O)(=O)Nc1ccc(-c2ccc(C[C@@H](C#N)NC(=O)[C@H]3N[C@H]4C[C@@H]3[C@@H]3C[C@@H]34)c(F)c2)cc1 [Example 140] | 21.5 nM | – | 8400 nM | – |
| CS(=O)(=O)c1ccc(-c2ccc(C[C@@H](C#N)NC(=O)[C@H]3N[C@H]4C[C@@H]3[C@@H]3C[C@@H]34)c(F)c2)cc1 [Example 141] | 36.6 nM | – | 8800 nM | – |
| CS(=O)(=O)c1cccc(-c2ccc(C[C@@H](C#N)NC(=O)[C@H]3N[C@H]4C[C@@H]3[C@@H]3C[C@@H]34)c(F)c2)c1 [Example 144] | 26.3 nM | – | 11100 nM | – |

| Structure (SMILES) | IC50 [1] | half-life at 1 μM [2] | IC50 [3] | In vitro stability in human liver microsome incubations t½ ([2]; 1 μM test compound, 37° C., NADPH) |
| --- | --- | --- | --- | --- |
| N#C[C@H](Cc1ccc(-c2ccc(Cl)nc2)cc1F)NC(=O)[C@H]1N[C@H]2C[C@@H]1[C@@H]1C[C@@H]12 [Example 145] | 53.8 nM | – | 7400 nM | – |
| N#C[C@H](Cc1ccc(-c2cccc(C(N)=O)c2)cc1F)NC(=O)[C@H]1N[C@H]2C[C@@H]1[C@@H]1C[C@@H]12 [Example 146] | 30.5 nM | – | 9600 nM | – |
| N#CC(Cc1ccc(-c2ccc3c(c2)CCNC3=O)cc1F)NC(=O)[C@H]1N[C@H]2C[C@@H]1[C@@H]1C[C@@H]12 (stereo partly drawn) [Example 148] | 30.4 nM | – | 14600 nM | – |
| CN1Cc2cc(-c3ccc(C[C@@H](C#N)NC(=O)[C@H]4N[C@H]5C[C@@H]4[C@@H]4C[C@@H]45)c(F)c3)ccc2C1=O [Example 149] | 38.7 nM | – | 7600 nM | – |
| CNS(=O)(=O)c1ccc(-c2ccc(C[C@@H](C#N)NC(=O)[C@H]3N[C@H]4C[C@@H]3[C@@H]3C[C@@H]34)c(F)c2)cc1 [Example 150] | 38.6 nM | – | 9300 nM | – |
| CCS(=O)(=O)c1ccc(-c2ccc(C[C@@H](C#N)NC(=O)[C@H]3N[C@H]4C[C@@H]3[C@@H]3C[C@@H]34)c(F)c2)cc1 [Example 151] | 36.9 nM | – | 4800 nM | – |
| CNC(=O)c1cc(-c2ccc(C[C@@H](C#N)NC(=O)[C@H]3N[C@@H]4CC[C@H]3C4)c(F)c2)cs1 [Example 161] | 1.9 nM | – | 10700 nM | – |
| N#Cc1ccc(-c2ccc(C[C@@H](C#N)NC(=O)[C@H]3N[C@@H]4CC[C@H]3C4)c(F)c2)o1 [Example 162] | 2 nM | > 2.17 h | – | – |
| CC1(C)OC(=O)c2cc(-c3ccc(C[C@@H](C#N)NC(=O)[C@H]4N[C@@H]5CC[C@H]4C5)c(F)c3)ccc21 [Example 166] | 3.3 nM | 1.57 h | – | – |
| N#C[C@H](Cc1ccc(-c2cnn(-c3ccccc3)c2)cc1F)NC(=O)[C@H]1N[C@@H]2CC[C@H]1C2 [Example 171] | 5 nM | 1.38 h | – | – |
| CNC(=O)c1ccc(-c2ccc(C[C@@H](C#N)NC(=O)[C@H]3N[C@@H]4CC[C@H]3C4)c(F)c2)cc1 [Example 186] | 9.6 nM | – | 3500 nM | – |
| C[C@H]1CN(C)CCN1c1ccc(C[C@@H](C#N)NC(=O)[C@H]2N[C@@H]3CC[C@H]2C3)c(F)c1 [Example 188] | – | 1.62 h | – | – |
| CC1CN(C)CCN1c1ccc(C[C@@H](C#N)NC(=O)[C@H]2N[C@@H]3CC[C@H]2C3)c(F)c1 (stereo partly drawn) [Example 192] | – | > 2.17 h | – | – |
| N#CC(Cc1ccc2c(c1)[nH]c1ccccc12)NC(=O)[C@H]1N[C@@H]2CC[C@H]1C2 (stereo partly drawn) [Example 203] | 23.3 nM | – | 8400 nM | – |
| COCCN1CCN(C(=O)c2cc(-c3ccc(C[C@@H](C#N)NC(=O)[C@H]4N[C@@H]5CC[C@H]4C5)c(F)c3)cs2)CC1 [Example 228] | 1.6 nM | – | 2000 nM | – |
| N#C[C@H](Cc1ccc(-c2csc(C(=O)N3CCN(C4CC4)CC3)c2)cc1F)NC(=O)[C@H]1N[C@@H]2CC[C@H]1C2 [Example 229] | 1.7 nM | – | 1600 nM | – |
| N#C[C@H](Cc1ccc(-c2csc(C(=O)N3CCN4CCOCC4C3)c2)cc1F)NC(=O)[C@H]1N[C@@H]2CC[C@H]1C2 (stereo partly drawn) [Example 234] | 3.8 nM | – | 2900 nM | – |
| N#C[C@H](Cc1ccc(-c2ccc(C(=O)N3CCn4nccc4C3)s2)cc1F)NC(=O)[C@H]1N[C@@H]2CC[C@H]1C2 [Example 237] | 4.6 nM | – | 1900 nM | – |
| N#C[C@H](Cc1ccc(N2CCCN3CCCC3C2)cc1F)NC(=O)[C@H]1N[C@@H]2CC[C@H]1C2 (stereo partly drawn) [Example 271] | – | – | – | 2.17 h |
| N#C[C@H](Cc1ccc([C@H]2CCN3CCOC[C@H]3C2)cc1F)NC(=O)[C@H]1N[C@@H]2CC[C@H]1C2 [Example 284] | – | 0.967 h | – | – |
| N#CC(Cc1ccc2c(c1)c(=O)[nH]c1cc(Cl)ccc12)NC(=O)[C@H]1N[C@@H]2CC[C@H]1C2 (stereo partly drawn) [Example 297] | 3.2 nM | – | 12400 nM | – |
| Cn1c(=O)c2cc(C[C@@H](C#N)NC(=O)[C@H]3N[C@@H]4CC[C@H]3C4)c(F)cc2c2ccccc21 [Example 326] | 1.9 nM | – | 1100 nM | – |
